Where “and” joins values, the source holds several entries; their conditions need not be identical. Equal entries are not always repeated. Where two headings read alike, the source gives them in different places.
Key:
[1] = pH 7.4; cited from earlier work
[2] = disposition of 14C-obicetrapib after a single oral dose of 20 mg/kg in the cynomolgus monkey; type: in vivo; settings: urine and feces samples
Description: Figure 1 illustrates the metabolism of obicetrapib (TA‐8995) in the cynomolgus monkey. A study was conducted to examine the disposition of ^14C‐obicetrapib following oral administration in the cynomolgus monkey (n = 3 males) at a dose level of 20 mg/kg. […] The monkeys each received a single oral dose of ^14C‐obicetrapib by gavage at a target dose level of 20 mg/kg and a nominal dose volume of 5 mL/kg. […] After the final blood collection, radioactivity was measured in the blood and plasma by liquid scintillation counting. The profile of M1 in selected samples of plasma was determined by high‐performance liquid chromatography (HPLC) (following extraction of the matrix, where relevant) and selected M1 were identified by liquid chromatography mass spectrometry. In plasma, unchanged obicetrapib and a M1 were the principal radioactive components and represented at least 66% of the chromatographic radioactivity in any single profile.

[3] = ROSE Phase II trial, plasma concentrations of obicetrapib; type: in vivo, humans; settings: for % Change in Plasma Level: Week 8 to Week 23, mean (SD); for concentration at 8 weeks / concentration at 23 weeks: both sexes, human, plasma, oral, read-out: Mean (SD) Plasma Level; for concentration at 8 weeks: Week 8 (EOT); for concentration at 23 weeks: Week 23, fifteen weeks after the end of treatment
Description: (§1) The PK parameters and the effect of food on the bioavailability of obicetrapib in humans have been examined in both Phase I[9] (TA‐8995‐09 CSR, NewAmsterdam Pharma) and Phase II trials.[10], [11], [12], [13] The trials were performed in accordance with the Declaration of Helsinki, Good Clinical Practice Guidelines, and applicable regulatory requirements. Approval was obtained from the relevant ethical review boards for each site. All volunteers provided written informed consent prior to participation. PK parameters were determined using WinNonlin software, version 4.1 or higher (Pharsight/Certara Corporation, USA). Concentrations of obicetrapib were summarized for each treatment group using descriptive statistics.
ROSE (NCT04753606) was a placebo‐controlled, double‐blind, randomized trial conducted to evaluate the efficacy of obicetrapib as an adjunct to high‐intensity statin therapy for reducing LDL‐C and ApoB levels.[11] A secondary endpoint of the trial included assessing plasma concentrations of obicetrapib during and after the end of treatment. […] One hundred twenty participants (mean age: 61.8 years; 55.8% male; 76.7% White; mean BMI: 31.1 kg/m^2) were enrolled at 17 clinical research sites in the United States and randomized in a 1:1:1 ratio to one of three treatment groups: (1) placebo; (2) 5 mg obicetrapib; or (3) 10 mg obicetrapib. The participants were instructed to take their assigned treatment orally with food once daily at approximately the same time each morning for the 8‐week treatment period. After randomization, participants returned to the clinical research site during Weeks 4 and 8 (end of treatment) for PK assessments. Additionally, participants completed follow‐up visits at four, eight, and 15 weeks after the end of treatment (Weeks 12, 16, and 23) for PK assessments. Of the 120 participants randomized in ROSE, 119 (99.2%) completed treatment; all 120 participants randomized were included in the modified Intent‐to‐Treat (mITT) analysis. The PK population (n = 80) included all randomized participants in the mITT population assigned to the two obicetrapib dose groups who had sufficient blood samples collected for valid estimation of PK parameters. Seventy‐seven (96.3%), 79 (98.8%), and 79 (98.8%) participants in the PK population for ROSE were included in the 4‐, 8‐, and 15‐week post‐end of treatment PK analyses, respectively (TA‐8995‐201 CSR, NewAmsterdam Pharma).

[4] = Phase I food effect trial on obicetrapib bioavailability (TA‐8995‐09); type: in vivo, humans; settings: for Cmax / AUC / t max: both sexes, human, plasma, oral, 10 mg; for t max: read-out: t max, median (minimum, maximum)
Description: as §1
This was an open‐label, randomized, two‐sequence, two‐period, two‐treatment crossover study conducted to evaluate the effect of food on the bioavailability of 10 mg obicetrapib. Thirty healthy adult males and females were randomized to treatment and data were available for 23 participants. In Treatment Period I, participants received a single 10 mg dose of obicetrapib after an overnight fast. In Treatment Period II, participants received a single 10 mg dose of obicetrapib at 30 min following the start of a standardized high‐fat, high‐calorie breakfast that was preceded by an overnight fast. Blood samples were collected at pre‐dose and at intervals over 336 h after dosing in each treatment period. The interval between doses was 49 days. The half‐life of obicetrapib was expected to be less than 6 days; therefore, it was anticipated that 49 days would be well beyond five half‐lives and an adequate washout period (TA‐8995‐09 CSR, NewAmsterdam Pharma).

[5] = Obicetrapib 5 mg + high‐intensity statin
[6] = Obicetrapib 10 mg + high‐intensity statin

Compound: CCOC(=O)N1c2ccc(C(F)(F)F)cc2C(N(Cc2cc(C(F)(F)F)cc(C(F)(F)F)c2)c2ncc(OCCCC(=O)O)cn2)CC1CC (stereo not drawn) [Obicetrapib]
- cLogDpH7.4 [1]: 4.9
- metabolism of obicetrapib [2]: extensive
- % Change in Plasma Level [3, 5]: −98.5 (1.7) %
- % Change in Plasma Level ([3]; Obicetrapib 5 mg + high‐intensity statin, listed as obicetrapib): −98.5%
- % Change in Plasma Level [3, 6]: −98.4 (1.9) %
- concentration at 8 weeks [3, 5]: 254 ng/mL
- concentration at 23 weeks [3, 5]: 2.9 ng/mL
- concentration at 8 weeks [3, 6]: 395 ng/mL
- concentration at 23 weeks [3, 6]: 5.6 ng/mL
- increase of peak and overall systemic exposure (AUC, C max) under fed compared to fasted conditions ([4]; 10 mg dose, high‐fat meal): ~ 1.6 fold and 1.6 fold
- least‐squares geometric mean of fed versus fasted ratio, AUC0‐t ([4]; 10 mg single dose): 154.9%
- least‐squares geometric mean of fed versus fasted ratio, AUC0‐∞ ([4]; 10 mg single dose): 155.4%
- least‐squares geometric mean of fed versus fasted ratio, C max ([4]; 10 mg single dose): 158.5%
- AUC(0‐t), LSGM Ratio (90% CI) (Fed vs. Fasted) ([4]; 10 mg single dose, n = 23): 155 (130, 184)
- AUC(0‐∞), LSGM Ratio (90% CI) (Fed vs. Fasted) ([4]; 10 mg single dose, n = 23): 155 (129, 187)
- C max, LSGM Ratio (90% CI) (Fed vs. Fasted) ([4]; 10 mg single dose, n = 23): 159 (126, 199)
- Cmax ([4]; 10 mg single dose, Fasted, n = 23): 140 ng/mL
- AUC ([4]; 10 mg single dose, Fasted, n = 23, read-out: AUC(0‐t), LS GM (converted)): 12400 ng·h/mL
- AUC ([4]; 10 mg single dose, Fasted, n = 23, read-out: AUC(0‐∞), LS GM (converted)): 16600 ng·h/mL
- Cmax ([4]; 10 mg single dose, Fed (high‐fat, high‐calorie breakfast), n = 23): 222 ng/mL
- AUC ([4]; 10 mg single dose, Fed, n = 23, read-out: AUC(0‐t), LS GM (converted)): 19200 ng·h/mL
- AUC ([4]; 10 mg single dose, Fed, n = 23, read-out: AUC(0‐∞), LS GM (converted)): 25800 ng·h/mL
- t max ([4]; 10 mg single dose, fasted): 5 h
- t max ([4]; 10 mg single dose, fed): 5.5 h

From PMC11489133, “Obicetrapib exhibits favorable physiochemical and pharmacokinetic properties compared to previous cholesteryl ester transfer protein inhibitors: An integrated summary of results from non‐human primate studies and clinical trials” (Pharmacology Research & Perspectives, 2024)
